Results: ChEMBL document CHEMBL4732045, “Amide Bond Bioisosteres: Strategies, Synthesis, and Successes” (J Med Chem, 2020)

Tests used:
[1] = system: CAKI-2; test: Cytotoxicity against human Caki-2 cells incubated for 96 hrs by MTT assay; type: functional, cell-based; conditions: CAKI-2, 96 h
[2] = system: A549; test: Cytotoxicity against human A549 cells incubated for 96 hrs by MTT assay; type: functional, cell-based; conditions: A549, 96 h
[3] = system: HeLa; test: Cytotoxicity against human HeLa cells incubated for 96 hrs by MTT assay; type: functional, cell-based
[4] = system: PC-3; test: Cytotoxicity activity against human PC-3 cells incubated for 96 hrs by MTT method; type: functional, cell-based; conditions: PC-3, 96 h
[5] = system: HL-60; test: Cytotoxicity activity against human HL-60 cells incubated for 96 hrs by MTT assay; type: functional, cell-based; conditions: HL-60, 96 h
[6] = biological target: T1, Human immunodeficiency virus type 1 protease (Human immunodeficiency virus 1, UniProt Q72874); test: Inhibition of HIV1 protease
[7] = biological target: Integrin alpha-4/beta-1 (Homo sapiens, UniProt P05556+P13612); test: Displacement of 125I-VCAM-Ig from VLA4 in human Jurkat cells incubated for 30 mins by scintillation counting method; type: cell-based
[8] = biological target: D(2) dopamine receptor (Bos taurus) (UniProt P20288); test: Modulation of [3H]Spiroperidol/N-Propylnorapomorphine binding to dopamine D2 receptor in bovine striatal membranes incubated for 1 hr by Cheng-Prusoff analysis; type: cell membranes; conditions: Striatum, Membrane, filed as modulator
[9] = biological target: D(2) dopamine receptor (Bos taurus) (UniProt P20288); test: Modulation of [3H]Spiroperidol/N-Propylnorapomorphine binding to dopamine D2 receptor in bovine striatal membranes incubated for 1 hr in presence of Gpp(NH)p by Cheng-Prusoff analysis; type: cell membranes; conditions: Striatum, Membrane, filed as modulator
[10] = Half life in monkey at 10 mg/kg, po; type: ADME, organism-based, Macaca mulatta; conditions: rhesus monkey, in vivo
[11] = Oral bioavailability in monkey at 10 mg/kg; type: ADME, organism-based, Macaca mulatta; conditions: rhesus monkey, in vivo
[12] = biological target: Neprilysin (Homo sapiens, UniProt P08473); test: Inhibition of NEP 24.11 (unknown origin) by fluorometric assay
[13] = Inhibition of ACAT in cholesterol-fed New Zealand rabbit intestional microsomes using [1-14C]oleoyl-CoA as substrate preincubated for 5 mins followed by substrate addition and measured after 5 mins by liquid scintillation counting method; set-up: species or system Oryctolagus cuniculus, Intestine, Microsome
[14] = biological target: T1, Human immunodeficiency virus type 1 protease; test: Inhibition of HIV-1 protease
[15] = Inhibition of HIV2 protease; set-up: species or system Human immunodeficiency virus 2
[16] = system: Human immunodeficiency virus 1; test: Antiviral activity against HIV1 3b isolate infected in human MT4 cells assessed as blockade of viral spread pretreated for 24 hrs followed by viral infection and subsequently treated with compound every 2 to 3 days post infection by ELISA; type: functional; conditions: Human immunodeficiency virus 1, 3b isolate, read-out: CIC95
[17] = biological target: Cannabinoid receptor 1 (Homo sapiens, UniProt P21554); test: Displacement of [3H]CP-55940 from human CB1 receptor expressed in HEK cells by competitive binding assay; type: cell-based
[18] = system: Poly(dA-dT)oligonucleotide; test: Binding affinity to poly (dA-dT) (unknown origin) by ethidium displacement assay; type: nucleic-acid assay
[19] = system: Poly(dG-dC)oligonucleotide; test: Binding affinity to poly (dG-dC) (unknown origin) by ethidium displacement assay; type: nucleic-acid assay
[20] = system: HMEC-1; test: Growth inhibition of HMEC-1 incubated for 4 days by Coulter counter method; type: cell-based; conditions: Homo sapiens, HMEC-1, 96 h
[21] = Growth inhibition of BAEC incubated for 3 days by Coulter counter method; conditions: Bos taurus, 72 h
[22] = system: HeLa; test: Antiproliferative activity against human HeLa cells incubated for 4 days by Coulter counter method; type: functional, cell-based; conditions: 96 h
[23] = system: CCRF-CEM; test: Antiproliferative activity against human CEM cells incubated for 96 hrs by Coulter counter method; type: functional, cell-based
[24] = system: L1210; test: Antiproliferative activity against mouse L1210 cells incubated for 48 hrs by Coulter counter method; type: functional, cell-based; conditions: L1210, 48 h
[25] = system: MDA-MB-231; test: Antiproliferative activity against human MDA-MB-231 cells; type: functional, cell-based
[26] = system: Mus musculus; test: Immunosuppressive activity in B6D2F1 mouse model of graft-versus-host disease assessed as mean survival days at 3 mg/kg, ip administered for day 1 to day 10 (day 6 omitted) and measured at day 60; type: functional; conditions: time 60 day
[27] = system: Mus musculus; test: Immunosuppressive activity in B6D2F1 mouse model of graft-versus-host disease assessed as mean survival days at 1 mg/kg, ip administered for day 1 to day 10 (day 6 omitted) and measured at day 60; type: functional; conditions: time 60 day
[28] = system: Rattus norvegicus; test: Immunosuppressive activity in Lewis rat model of Heart Allotransplantation assessed as mean survival days at 6 mg/kg, ip administered for 10 days by Manntel-Haenszel test; type: functional; conditions: time 10 day
[29] = system: HT-29; test: Cytotoxicity against human HT-29 cells incubated for 96 hrs by MTT assay; type: functional, cell-based; conditions: HT-29, 96 h
[30] = system: PC-3; test: Cytotoxicity against human PC-3 cells incubated for 96 hrs by MTT assay; type: functional, cell-based; conditions: PC-3, 96 h
[31] = system: HL-60; test: Cytotoxicity against human HL-60 cells incubated for 96 hrs by MTT assay; type: functional, cell-based; conditions: HL-60, 96 h
[32] = biological target: Delta-type opioid receptor (Mus musculus, UniProt P32300); test: Inhibition of [3H]-Deltorphin 2 binding to mouse delta opioid receptor expressed in rat GH3 cell membranes by Cheng-Prusoff analysis; set-up: species or system Cell membrane
Sequence of Delta-type opioid receptor (P32300 whole entry): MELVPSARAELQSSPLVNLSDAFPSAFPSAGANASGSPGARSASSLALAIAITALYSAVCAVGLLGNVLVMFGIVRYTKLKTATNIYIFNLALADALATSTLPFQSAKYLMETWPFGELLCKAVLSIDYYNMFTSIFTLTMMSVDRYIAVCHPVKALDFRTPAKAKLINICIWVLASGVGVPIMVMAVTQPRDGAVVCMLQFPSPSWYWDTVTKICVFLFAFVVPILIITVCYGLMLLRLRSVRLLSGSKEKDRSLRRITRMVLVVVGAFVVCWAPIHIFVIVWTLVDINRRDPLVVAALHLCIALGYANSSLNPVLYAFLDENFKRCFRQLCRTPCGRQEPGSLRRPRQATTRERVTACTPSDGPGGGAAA

Sequence of D(2) dopamine receptor (Bos taurus) (P20288 whole entry): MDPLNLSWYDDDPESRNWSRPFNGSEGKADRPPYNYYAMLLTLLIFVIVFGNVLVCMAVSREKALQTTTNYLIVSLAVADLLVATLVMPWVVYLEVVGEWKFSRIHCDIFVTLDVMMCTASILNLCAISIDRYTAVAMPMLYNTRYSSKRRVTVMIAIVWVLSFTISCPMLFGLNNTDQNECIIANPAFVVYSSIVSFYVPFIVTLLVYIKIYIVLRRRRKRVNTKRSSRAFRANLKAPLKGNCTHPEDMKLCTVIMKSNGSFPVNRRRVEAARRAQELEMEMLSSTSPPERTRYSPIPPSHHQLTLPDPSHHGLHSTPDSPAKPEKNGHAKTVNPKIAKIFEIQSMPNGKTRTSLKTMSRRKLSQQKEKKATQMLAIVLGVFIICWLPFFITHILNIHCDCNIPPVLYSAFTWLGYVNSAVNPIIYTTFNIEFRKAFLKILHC
Sequence of Integrin alpha-4/beta-1 (P05556 whole entry): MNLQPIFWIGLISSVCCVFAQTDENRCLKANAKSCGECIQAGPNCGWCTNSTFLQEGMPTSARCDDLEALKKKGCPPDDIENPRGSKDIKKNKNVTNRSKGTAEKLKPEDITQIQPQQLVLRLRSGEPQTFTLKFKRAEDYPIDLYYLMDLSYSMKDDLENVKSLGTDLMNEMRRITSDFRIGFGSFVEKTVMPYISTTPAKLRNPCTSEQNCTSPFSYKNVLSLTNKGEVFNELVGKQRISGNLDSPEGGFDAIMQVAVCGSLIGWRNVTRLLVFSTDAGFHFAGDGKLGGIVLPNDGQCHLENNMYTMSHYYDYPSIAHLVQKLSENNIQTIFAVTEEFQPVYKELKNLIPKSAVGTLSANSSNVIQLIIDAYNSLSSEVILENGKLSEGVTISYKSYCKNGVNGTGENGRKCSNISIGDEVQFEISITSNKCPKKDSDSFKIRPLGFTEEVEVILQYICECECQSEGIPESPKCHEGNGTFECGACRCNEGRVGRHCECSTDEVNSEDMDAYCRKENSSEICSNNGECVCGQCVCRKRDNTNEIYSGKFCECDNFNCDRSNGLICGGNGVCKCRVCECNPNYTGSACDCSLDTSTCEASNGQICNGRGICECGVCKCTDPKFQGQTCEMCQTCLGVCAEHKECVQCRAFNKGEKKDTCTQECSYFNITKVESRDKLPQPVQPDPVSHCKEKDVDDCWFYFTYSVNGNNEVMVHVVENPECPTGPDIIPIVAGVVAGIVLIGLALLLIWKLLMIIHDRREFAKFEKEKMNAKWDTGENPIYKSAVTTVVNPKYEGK
Sequence of Integrin alpha-4/beta-1 (P13612 whole entry): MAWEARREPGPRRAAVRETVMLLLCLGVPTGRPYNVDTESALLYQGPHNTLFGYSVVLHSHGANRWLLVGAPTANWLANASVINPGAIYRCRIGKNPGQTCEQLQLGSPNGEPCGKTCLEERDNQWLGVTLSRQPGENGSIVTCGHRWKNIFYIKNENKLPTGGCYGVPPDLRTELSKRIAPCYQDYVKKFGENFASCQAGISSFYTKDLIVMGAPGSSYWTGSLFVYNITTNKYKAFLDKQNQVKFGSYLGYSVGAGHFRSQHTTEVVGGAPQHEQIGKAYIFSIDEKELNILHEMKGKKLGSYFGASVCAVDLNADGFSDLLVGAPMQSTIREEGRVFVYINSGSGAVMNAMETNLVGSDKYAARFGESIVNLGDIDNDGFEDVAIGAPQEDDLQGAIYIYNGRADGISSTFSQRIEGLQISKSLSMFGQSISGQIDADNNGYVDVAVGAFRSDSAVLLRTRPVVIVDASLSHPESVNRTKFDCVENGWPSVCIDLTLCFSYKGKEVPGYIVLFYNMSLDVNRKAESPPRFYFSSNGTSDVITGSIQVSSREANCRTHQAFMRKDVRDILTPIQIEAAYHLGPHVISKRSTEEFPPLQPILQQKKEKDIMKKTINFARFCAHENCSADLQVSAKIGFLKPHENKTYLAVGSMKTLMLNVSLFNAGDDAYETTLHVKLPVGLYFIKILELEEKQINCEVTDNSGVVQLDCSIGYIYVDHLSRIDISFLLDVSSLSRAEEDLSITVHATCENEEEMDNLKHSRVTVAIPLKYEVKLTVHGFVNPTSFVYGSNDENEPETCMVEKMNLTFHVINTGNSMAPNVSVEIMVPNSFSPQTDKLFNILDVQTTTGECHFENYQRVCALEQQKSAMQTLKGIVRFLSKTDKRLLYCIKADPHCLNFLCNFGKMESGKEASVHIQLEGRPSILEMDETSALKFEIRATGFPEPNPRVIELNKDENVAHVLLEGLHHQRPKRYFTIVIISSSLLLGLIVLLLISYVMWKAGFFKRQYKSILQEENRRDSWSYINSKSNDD
Sequence of Neprilysin (P08473 whole entry): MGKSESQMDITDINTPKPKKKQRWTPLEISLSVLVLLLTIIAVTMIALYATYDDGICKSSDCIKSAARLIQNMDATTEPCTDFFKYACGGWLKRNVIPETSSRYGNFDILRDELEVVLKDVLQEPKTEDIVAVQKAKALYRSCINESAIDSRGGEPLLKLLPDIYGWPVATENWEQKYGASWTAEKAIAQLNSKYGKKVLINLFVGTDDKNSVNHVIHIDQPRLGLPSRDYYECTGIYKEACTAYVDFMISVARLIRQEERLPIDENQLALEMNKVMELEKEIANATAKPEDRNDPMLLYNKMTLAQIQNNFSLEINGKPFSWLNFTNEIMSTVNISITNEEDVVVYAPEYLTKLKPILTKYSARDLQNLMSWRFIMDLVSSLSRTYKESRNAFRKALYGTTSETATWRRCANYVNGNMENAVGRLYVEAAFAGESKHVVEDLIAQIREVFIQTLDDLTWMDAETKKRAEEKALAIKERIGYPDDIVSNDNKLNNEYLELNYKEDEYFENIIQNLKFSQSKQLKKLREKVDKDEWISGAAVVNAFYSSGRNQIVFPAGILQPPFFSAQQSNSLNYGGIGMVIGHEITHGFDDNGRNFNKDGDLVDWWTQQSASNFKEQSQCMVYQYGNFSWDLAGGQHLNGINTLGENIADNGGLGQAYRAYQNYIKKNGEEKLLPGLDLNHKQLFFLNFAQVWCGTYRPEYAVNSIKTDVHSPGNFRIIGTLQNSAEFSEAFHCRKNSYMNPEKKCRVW
Sequence of Cannabinoid receptor 1 (P21554 whole entry): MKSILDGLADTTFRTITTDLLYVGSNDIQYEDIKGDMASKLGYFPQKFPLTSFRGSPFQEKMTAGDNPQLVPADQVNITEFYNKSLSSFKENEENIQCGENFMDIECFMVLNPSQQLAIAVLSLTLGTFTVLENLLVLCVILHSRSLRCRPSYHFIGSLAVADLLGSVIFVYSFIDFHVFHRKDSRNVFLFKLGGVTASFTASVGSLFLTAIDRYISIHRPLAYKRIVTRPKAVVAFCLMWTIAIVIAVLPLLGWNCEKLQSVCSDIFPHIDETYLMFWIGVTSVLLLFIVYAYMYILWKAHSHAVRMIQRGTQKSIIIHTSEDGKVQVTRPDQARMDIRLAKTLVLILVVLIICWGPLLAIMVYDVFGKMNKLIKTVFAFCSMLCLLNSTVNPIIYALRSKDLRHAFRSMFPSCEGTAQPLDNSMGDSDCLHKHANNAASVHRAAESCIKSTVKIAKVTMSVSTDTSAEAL

CCCCCCCCCCCCCCCCS(=O)(=O)N[C@@H](CO)[C@H](O)/C=C/c1ccc(Cl)cc1
IC50 [1]: 103 µM
IC50 [2]: 96 µM
IC50 [3]: 65 µM
IC50 [4]: 123 µM
IC50 [5]: 28 µM

CC(C)(C)NC(=O)[C@@H]1C[C@@H]2CCCC[C@@H]2CN1C[C@@H](O)[C@H](Cc1ccccc1)NC(=O)OC(C)(C)C
IC50 [6]: ≥ 3 µM

COc1cccc(OC)c1-c1ccc(C[C@H](N=C(N)[C@@H]2CCN2S(=O)(=O)c2ccccc2)C(=O)O)cc1
IC50 [7]: 0.0001 µM

NC(=O)CN1CC[C@@H](N2CC(=O)N3CCC[C@H]3C2=O)C1=O
KiH [8]: 0.08 nM
KiL [8]: 69 nM
KiH [9]: 0.19 nM
KiL [9]: 50 nM

C=CC[C@H](C(=O)NO)[C@@H](CC(C)C)C(=O)N[C@@H](Cc1ccccc1)C(=O)c1c[nH]c2ccccc12
half-life [10]: 20 h
bioavailability [11]: 12%

O=C(O)CC(=O)N[C@@H](CS)Cc1ccccc1
Ki [12]: 0.0023 µM

CC(C)c1cccc(C(C)C)c1NC(=O)NCC1(c2cccc(N(C)C)c2)CCCC1
IC50 [13]: 0.063 µM

CC(C)C[C@H](NC[C@@H]1CCCN1)C(=O)NCC(N)=O
KiH [8]: 0.09 nM
KiL [8]: 73.2 nM
KiH [9]: 0.13 nM
KiL [9]: 60 nM

CC(C)C(NC(=O)C[C@@H]1O[C@@H]1[C@H](Cc1ccccc1)NC(=O)[C@H](CC(N)=O)NC(=O)c1ccc2ccccc2n1)C(C)C
IC50 [14]: 0.02 µM

CC(C)(C)NS(=O)(=O)CC[C@@H]1O[C@@H]1[C@H](Cc1ccccc1)NOC(=O)CCC(=O)NC(=O)c1ccc2ccccc2n1
IC50 [14]: 0.03 µM

CC(C)(C)NC(=O)[C@@H]1C[C@@H]2CCCC[C@@H]2CN1C[C@@H](O)[C@H](Cc1ccccc1)NC(=O)[C@H](CC(N)=O)NC(=O)c1ccc2ccccc2n1
IC50 [15]: 0.0005 µM
IC95 [16]: 0.022 µM

CCCCCn1cc(-c2cn(C34CC5CC(CC(C5)C3)C4)nn2)c(=O)c2cc(-c3ccco3)ccc21
Ki [17]: > 10 µM

CN(C)CCCNC(=O)c1cc(NC(=O)c2cc(/C=C/c3cc([N+](=O)[O-])cn3C)cn2C)cn1C
Kapp [18]: 16.9 10^5/M
Kapp [19]: 7.4 10^5/M

CS(=O)(=O)c1ccc(C(=O)Nc2ccc(Cl)c(-c3ccccn3)c2)c(Cl)c1 [VISMODEGIB]
IC50 [20]: 41 µM
IC50 [21]: 50 µM
IC50 [22]: 64 µM
IC50 [23]: 58 µM
IC50 [24]: 49 µM

CC(C)(C)NS(=O)(=O)CC[C@@H]1O[C@@H]1[C@H](Cc1ccccc1)NC(=O)[C@@H](NC(=O)OCc1ccccc1)C(C)(C)S(C)(=O)=O
IC50 [14]: 0.0202 µM

COc1ccc(C(=O)NCc2ccc3c(c2)OCO3)cc1
IC50 [25]: ≥ 200 µM

NCCCNCCCCNC(=O)NCC(=O)NCCCCCCN=C(N)N
Survival [26]: 48 days
Survival [27]: 42 days
Survival [28]: 12 days

CCCCCCCCCCCCCC(=O)N[C@@H](CO)[C@H](O)c1ccc([N+](=O)[O-])cc1
IC50 [1]: 107 µM
IC50 [29]: 96 µM
IC50 [2]: 64 µM
IC50 [30]: 83 µM
IC50 [31]: 28 µM
IC50 [3]: 78 µM
IC50 [4]: 123 µM
IC50 [5]: 48 µM

CC(C)C[C@@H](C(=O)NCC(N)=O)N1CC(=O)N2CCC[C@H]2C1=O
KiH [8]: 0.08 nM
KiL [8]: 120 nM
KiH [9]: 0.12 nM
KiL [9]: 172 nM

CN(C)CCCNC(=O)c1cc(NC(=O)c2cc(NC(=O)c3cc(NC=O)cn3C)cn2C)cn1C
Kapp [18]: 150 10^5/M
Kapp [19]: 0.9 10^5/M

CC(C)C[C@H](NC(=O)[C@H](Cc1ccccc1)NC(=S)CNC(=O)CNC(=O)[C@@H](N)Cc1ccc(O)cc1)C(=O)O
Ki [32]: 0.047 µM

COc1cccc(OC)c1-c1ccc(C[C@H](N=C(NCC(F)(F)F)[C@@H]2CCN2S(=O)(=O)c2ccccc2)C(=O)O)cc1
IC50 [7]: 0.00013 µM
